Experimental data: ChEMBL document CHEMBL3044845, “Synthesis and biological activity studies of furan derivatives” (2010)
Calls of active or inactive are those of the source. The calls are words filed in the database; no cut-off is given here.

Tests used:
Escherichia coli [1] = experiment: Antibacterial activity against Escherichia coli ATCC […] at 5 mg/ml after 24 hr by disk diffusion method; type: functional; settings: read-out: DIZ
Salmonella enteritidis [2] = experiment: Antibacterial activity against Salmonella enterica subsp. enterica serovar Enteritidis ATCC 1376 at 5 mg/ml after 24 hr by disk diffusion method; type: functional; settings: for zone of inhibition at 5000 µg/mL: ATCC 1376, 24 h, read-out: DIZ
Listeria monocytogenes [3] = experiment: Antibacterial activity against Listeria monocytogenes ATCC 7644 at 5 mg/ml after 24 hr by disc diffusion method; type: functional; settings: for zone of inhibition at 5000 µg/mL: ATCC 7644, 24 h, read-out: DIZ
Micrococcus luteus [4] = experiment: Antibacterial activity against Micrococcus luteus NRRLB 4375 at 5 mg/ml after 24 hr by disk diffusion method; type: functional; settings: for zone of inhibition at 5000 µg/mL: NRRLB 4375, 24 h, read-out: DIZ
Priestia megaterium [5] = experiment: Antibacterial activity against Bacillus megaterium ATCC 6633 at 5 mg/ml after 24 hr by disk diffusion method; type: functional
Bacillus subtilis [6] = experiment: Antibacterial activity against Bacillus subtilis RSKK 244 at 5 mg/ml after 24 hr by disk diffusion method; type: functional; settings: for zone of inhibition at 5000 µg/mL: RSKK 244, 24 h, read-out: DIZ
Pseudomonas aeruginosa [7] = experiment: Antibacterial activity against Pseudomonas aeruginosa ATCC […] at 5 mg/ml after 24 hr by disk diffusion method; type: functional; settings: for zone of inhibition at 5000 µg/mL: read-out: DIZ
Staphylococcus aureus [8] = experiment: Antibacterial activity against Staphylococcus aureus ATCC 25923 at 5 mg/ml after 24 hr by disk diffusion method; type: functional; settings: ATCC 25923, 24 h, read-out: DIZ
Listeria monocytogenes [9] = experiment: Antibacterial activity against Listeria monocytogenes ATCC 7644 after 24 hr by disk diffusion method; type: functional, organism-based
Pseudomonas aeruginosa [10] = experiment: Antibacterial activity against Pseudomonas aeruginosa ATCC […] after 24 hr by disk diffusion method; type: functional, organism-based
Salmonella enteritidis [11] = experiment: Antibacterial activity against Salmonella enterica subsp. enterica serovar Enteritidis ATCC 1376 after 24 hr by disk diffusion method; type: functional, organism-based
Staphylococcus aureus [12] = experiment: Antibacterial activity against Staphylococcus aureus ATCC 25923 after 24 hr by disk diffusion method; type: functional
Micrococcus luteus [13] = experiment: Antibacterial activity against Micrococcus luteus NRRLB 4375 after 24 hr by disk diffusion method; type: functional
Priestia megaterium [14] = experiment: Antibacterial activity against Bacillus megaterium ATCC 6633 after 24 hr by disk diffusion method; type: functional
Bacillus subtilis [15] = experiment: Antibacterial activity against Bacillus subtilis RSKK 244 after 24 hr by disk diffusion method; type: functional
Escherichia coli [16] = experiment: Antibacterial activity against Escherichia coli ATCC […] after 24 hr by disk diffusion method; type: functional

Compound	zone of inhibition at 5000 µg/mL (Escherichia coli [1]) [mm]	zone of inhibition at 5000 µg/mL (Salmonella enteritidis [2]) [mm]	zone of inhibition at 5000 µg/mL (Listeria monocytogenes [3]) [mm]	zone of inhibition at 5000 µg/mL (Micrococcus luteus [4]) [mm]	zone of inhibition at 5000 µg/mL (Bacillus subtilis [6]) [mm]	zone of inhibition at 5000 µg/mL (Pseudomonas aeruginosa [7]) [mm]	zone of inhibition at 5000 µg/mL (Staphylococcus aureus [8]) [mm]	diameter of the inhibition zone (DIZ) (Priestia megaterium [5])	diameter of the inhibition zone (DIZ) (Micrococcus luteus [13]) [mm]	also measured
CCC1C(C#N)=C(c2ccco2)OC1(c1ccccc1)c1ccccc1 (stereo not given)	13	10	16	14	11	12	10	–	–	zone of inhibition at 5000 µg/mL (Priestia megaterium [5]; ATCC 6633, 24 h, read-out: DIZ): 10 mm
CCCC1(c2ccccc2)OC(c2cc3ccccc3o2)=C(C#N)C1c1ccccc1 (stereo not given)	10	14	13	13	11	10	12	inactive	–	–
CCC1C(C#N)=C(c2ccccc2)OC1(c1ccccc1)c1ccccc1 (stereo not given)	11	13	11	13	11	12	13	inactive	–	–
GENTAMICIN	–	–	–	–	–	–	–	–	–	inhibition zone (IZ) (Listeria monocytogenes [9]): 10 mm; inhibition zone (IZ) (Pseudomonas aeruginosa [10]): 16 mm; inhibition zone (IZ) (Salmonella enteritidis [11]): 9 mm
CC1(C)S[C@@H]2[C@H](NC(=O)[C@H](N)c3ccccc3)C(=O)N2[C@H]1C(=O)O [AMPICILLIN]	–	–	–	–	–	–	–	–	28	diameter of the inhibition zone (DIZ) (Staphylococcus aureus [12]): 9 mm; diameter of the inhibition zone (DIZ) (Priestia megaterium [14]): 10 mm; diameter of the inhibition zone (DIZ) (Bacillus subtilis [15]): 15 mm
CN(C)[C@@H]1C(O)=C(C(N)=O)C(=O)[C@@]2(O)C(O)=C3C(=O)c4c(O)cccc4[C@@](C)(O)[C@H]3C[C@@H]12 [TETRACYCLINE]	–	–	–	–	–	–	–	–	9	–
CC1(C)S[C@@H]2[C@H](NC(=O)Cc3ccccc3)C(=O)N2[C@H]1C(=O)O [PENICILLIN G]	–	–	–	–	–	–	–	–	31	diameter of the inhibition zone (DIZ) (Escherichia coli [16]): 19 mm
CCCC1(c2ccccc2)OC(c2ccccc2)=C(C#N)C1c1ccccc1 (stereo not given)	12	16	18	13	10	10	14	inactive	–	–
CCC1C(C#N)=C(c2cccs2)OC1(c1ccccc1)c1ccccc1 (stereo not given)	10	–	–	–	–	–	8	inactive	–	diameter of the inhibition zone (DIZ) (Salmonella enteritidis [2]): inactive; diameter of the inhibition zone (DIZ) (Listeria monocytogenes [3]): inactive; diameter of the inhibition zone (DIZ) (Micrococcus luteus [4]): inactive; diameter of the inhibition zone (DIZ) (Bacillus subtilis [6]): inactive; diameter of the inhibition zone (DIZ) (Pseudomonas aeruginosa [7]): inactive
